These results are taken from PubChem BioAssay AID624129 (Sanford-Burnham Center for Chemical Genomics, 2012).

In general, IC50 refers to the midpoint of a concentration-inhibition curve. The term inhibition denotes the drop in the measured response relative to a control, in per cent.

Common to all, as to assay: CXCR6 receptor antagonists, dose response, cell-based, beta-arrestin, DiscoveRx, APJ panel, uHTS hits (AID 624129)
Assay [1] concerns the target Apelin receptor (Homo sapiens) (UniProt P35414). The conditions noted are these: CXCR6 beta-arrestin (DiscoveRx) antagonist cell assay, APJ.
The target of assay [2] is Beta-galactosidase (Escherichia coli) (UniProt Q8VNN2). The conditions noted are these: CXCR6 beta-arrestin (DiscoveRx) antagonist cell assay, b-galactosidase.
Sequence of Beta-galactosidase (Escherichia coli) (Q8VNN2 whole entry, looked up): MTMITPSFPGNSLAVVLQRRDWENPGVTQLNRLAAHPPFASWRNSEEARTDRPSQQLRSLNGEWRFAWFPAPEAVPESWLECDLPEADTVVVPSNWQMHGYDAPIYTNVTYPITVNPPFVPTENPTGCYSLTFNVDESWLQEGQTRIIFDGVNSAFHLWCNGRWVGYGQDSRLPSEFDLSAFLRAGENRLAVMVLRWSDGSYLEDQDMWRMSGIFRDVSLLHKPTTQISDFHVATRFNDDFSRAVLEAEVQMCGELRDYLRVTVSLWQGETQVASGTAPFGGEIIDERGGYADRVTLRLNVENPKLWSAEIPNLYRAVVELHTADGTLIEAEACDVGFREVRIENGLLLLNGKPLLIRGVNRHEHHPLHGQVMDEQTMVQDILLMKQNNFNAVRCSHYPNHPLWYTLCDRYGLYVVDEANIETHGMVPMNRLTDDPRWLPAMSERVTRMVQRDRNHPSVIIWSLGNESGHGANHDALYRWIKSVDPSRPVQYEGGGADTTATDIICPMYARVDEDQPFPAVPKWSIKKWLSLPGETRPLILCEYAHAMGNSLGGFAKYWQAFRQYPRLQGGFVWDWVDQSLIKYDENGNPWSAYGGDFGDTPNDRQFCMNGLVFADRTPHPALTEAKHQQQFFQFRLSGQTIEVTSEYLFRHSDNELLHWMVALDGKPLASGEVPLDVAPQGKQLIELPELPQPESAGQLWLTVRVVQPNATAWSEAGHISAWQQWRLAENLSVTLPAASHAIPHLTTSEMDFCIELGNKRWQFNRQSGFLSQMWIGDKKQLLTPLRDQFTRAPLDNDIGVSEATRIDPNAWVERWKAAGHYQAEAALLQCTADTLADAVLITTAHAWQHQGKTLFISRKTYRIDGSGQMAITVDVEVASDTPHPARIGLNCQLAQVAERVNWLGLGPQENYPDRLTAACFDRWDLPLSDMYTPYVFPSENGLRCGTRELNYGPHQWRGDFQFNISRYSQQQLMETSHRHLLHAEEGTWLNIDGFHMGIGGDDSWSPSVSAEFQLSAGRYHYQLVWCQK
The target in assay [3] is C-C chemokine receptor type 6 (Homo sapiens) (UniProt P51684). To be noted: CXCR6 beta-arrestin (DiscoveRx) antagonist cell assay.
Assay [4] addresses C-X-C chemokine receptor type 6 (Homo sapiens) (UniProt O00574). The conditions noted are these: CXCR6 beta-arrestin (DiscoveRx) antagonist cell assay; for inhibition: CXCR6, run 1, dose range 2, at 80 µM (top of the series).
The mark [5] stands for this setting: dose range 1, mean IC50 across replicates.
The mark [6] stands for this setting: CCR6, dose range 1, mean IC50 across replicates.
[7] abbreviates: CXCR6, dose range 1, mean IC50 across replicates.

Each structure is given as a SMILES string. Calls of active or inactive are those of the source. The rule behind the calls is not given here. Bounds are passed on as bounds.

Sequence of C-X-C chemokine receptor type 6 (Homo sapiens) (O00574 whole entry, looked up): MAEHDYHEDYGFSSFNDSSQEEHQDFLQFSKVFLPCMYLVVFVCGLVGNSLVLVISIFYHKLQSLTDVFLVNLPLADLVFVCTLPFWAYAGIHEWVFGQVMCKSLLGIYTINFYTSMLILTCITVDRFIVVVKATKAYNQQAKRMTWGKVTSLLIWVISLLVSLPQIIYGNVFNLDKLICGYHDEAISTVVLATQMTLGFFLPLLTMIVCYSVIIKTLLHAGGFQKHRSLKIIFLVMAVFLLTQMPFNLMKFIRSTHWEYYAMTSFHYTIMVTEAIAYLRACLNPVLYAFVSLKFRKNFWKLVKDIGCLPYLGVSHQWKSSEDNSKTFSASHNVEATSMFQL

With `O=[N+]([O-])c1c(Nc2ccc(O)cc2)cc(Cl)c2nonc12`, the IC50 is 6.33 µM in assay [1] (dose range 1); 8.66 µM in assay [1] (setting [5]); 4.41 µM in assay [1] (run 2, dose range 1); 15.2 µM in assay [1] (run 3, dose range 1); 35 µM in assay [2] (dose range 1); 35 µM in assay [2] (setting [5]). Moreover, the IC50 in assay [3] (CCR6, dose range 1) was 1.62 µM; in assay [3] (setting [6]) it was 1.74 µM; in assay [3] (CCR6, run 2, dose range 1), 1.85 µM; in assay [4] (CXCR6, dose range 1) it was 1.78 µM; in assay [4] (setting [7]) it was 2.71 µM; in assay [4] (CXCR6, run 1, dose range 2) it was 3.01 µM. The IC50 in assay [4] (CXCR6, run 2, dose range 1) was 3.41 µM; in assay [4] (CXCR6, run 2, dose range 2), 2.65 µM.

In the case of `O=C1C=CC2(O[C@H](c3ccccc3)[C@@H](c3ccccc3)O2)[C@H](Sc2ccccc2O)C1`, the IC50 is 1.65 µM in assay [1] (dose range 1); 3.05 µM in assay [1] (setting [5]); 5.03 µM in assay [1] (run 2, dose range 1); 2.46 µM in assay [1] (run 3, dose range 1); > 80 µM (inactive) in assay [2] (dose range 1); over 80 µM in assay [2] (setting [5]). The IC50 in assay [3] (CCR6, dose range 1) is 2.26 µM; in assay [3] (setting [6]) it was 3.07 µM; in assay [3] (CCR6, run 2, dose range 1) it was 3.87 µM; in assay [4] (CXCR6, dose range 1), 8.69 µM; in assay [4] (setting [7]), 6.31 µM; in assay [4] (CXCR6, run 2, dose range 1), 3.94 µM. Also, the inhibition in assay [4] was 121%.

For the compound `C=C1CC2(OC1=O)c1ccccc1CCc1ccccc12`, the IC50 in assay [1] (setting [5]) is over 80 µM; in assay [1] (run 2, dose range 1), over 80 µM; in assay [1] (run 3, dose range 1) it was over 80 µM; in assay [2] (dose range 1) it was > 80 µM (inactive); in assay [2] (setting [5]), over 80 µM; in assay [3] (CCR6, dose range 1) it was 15.1 µM. Besides, the IC50 in assay [3] (setting [6]) was found to be 12.9 µM; in assay [3] (CCR6, run 2, dose range 1), 10.7 µM; in assay [4] (setting [7]), 18.7 µM; in assay [4] (CXCR6, run 2, dose range 1) it was 15.8 µM. Besides, the IC50 entry in assay [4] (CXCR6, dose range 1) is “inactive”. In addition, in assay [4], the inhibition came to 58.6%.

For `COc1cccc(-n2nc(C#N)c(Cl)cc2=O)c1`, the IC50 in assay [1] (dose range 1) is 7.86 µM; in assay [1] (setting [5]), 7.23 µM; in assay [1] (run 2, dose range 1), 7.26 µM; in assay [1] (run 3, dose range 1) it was 6.56 µM; in assay [2] (dose range 1), > 80 µM (inactive); in assay [2] (setting [5]), over 80 µM. Besides, the IC50 in assay [3] (CCR6, dose range 1) is 6.31 µM; in assay [3] (setting [6]), 9.54 µM; in assay [3] (CCR6, run 2, dose range 1) it was 12.8 µM; in assay [4] (setting [7]), 12.6 µM; in assay [4] (CXCR6, run 1, dose range 2) it was 9.33 µM; in assay [4] (CXCR6, run 2, dose range 1), 13.7 µM. Also, the IC50 in assay [4] (CXCR6, run 2, dose range 2) came out at 12 µM. Moreover, the IC50 result in assay [4] (CXCR6, dose range 1) was “inactive”.

In the case of `CN(C)c1nc(=NCc2cccs2)ss1`, the IC50 in assay [1] (dose range 1) was 3.71 µM; in assay [1] (setting [5]), 3.68 µM; in assay [1] (run 2, dose range 1), over 80 µM; in assay [1] (run 3, dose range 1), 3.66 µM; in assay [2] (dose range 1) it was > 80 µM (inactive); in assay [2] (setting [5]) it was over 80 µM. The IC50 was 3.66 µM in assay [3] (CCR6, dose range 1); 2.37 µM in assay [3] (setting [6]); 1.07 µM in assay [3] (CCR6, run 2, dose range 1); 4.99 µM in assay [4] (CXCR6, dose range 1); 5.43 µM in assay [4] (setting [7]); 5.86 µM in assay [4] (CXCR6, run 2, dose range 1). In addition, the inhibition in assay [4] was 53%.

On to `Cc1ccsc1/C=C/c1ccc2cccc(O)c2n1`, for which the IC50 in assay [1] (dose range 1) is 6.75 µM; in assay [1] (setting [5]), 7.71 µM; in assay [1] (run 2, dose range 1) it was 9.69 µM; in assay [1] (run 3, dose range 1) it was 6.7 µM; in assay [2] (dose range 1), > 80 µM (inactive); in assay [2] (setting [5]), over 80 µM. For the same compound, the IC50 in assay [3] (CCR6, dose range 1) was 5.29 µM; in assay [3] (setting [6]) it was 6.51 µM; in assay [3] (CCR6, run 2, dose range 1), 7.72 µM; in assay [4] (CXCR6, dose range 1), 6.32 µM; in assay [4] (setting [7]), 5.47 µM; in assay [4] (CXCR6, run 1, dose range 2), 3.12 µM. Also, the IC50 in assay [4] (CXCR6, run 2, dose range 1) was found to be 8.63 µM; in assay [4] (CXCR6, run 2, dose range 2), 3.82 µM.

`CC(=O)/C(=N\Nc1ccc(Cl)cc1Cl)Sc1cccc2cccnc12`: the IC50 was 2.83 µM in assay [1] (dose range 1); 3.28 µM in assay [1] (setting [5]); 3.64 µM in assay [1] (run 2, dose range 1); 3.36 µM in assay [1] (run 3, dose range 1); > 80 µM (inactive) in assay [2] (dose range 1); over 80 µM in assay [2] (setting [5]). The IC50 in assay [3] (CCR6, dose range 1) was 3.37 µM; in assay [3] (setting [6]) it was 3.94 µM; in assay [3] (CCR6, run 2, dose range 1), 4.51 µM; in assay [4] (CXCR6, dose range 1) it was 5.34 µM; in assay [4] (setting [7]) it was 4.07 µM; in assay [4] (CXCR6, run 1, dose range 2), 2.66 µM. Further, the IC50 turned out to be 5.55 µM in assay [4] (CXCR6, run 2, dose range 1) and 2.73 µM in assay [4] (CXCR6, run 2, dose range 2).

With `CCC(=O)OCCNc1cc(Sc2nc3ccccc3s2)c2nonc2c1[N+](=O)[O-]`, the IC50 is 32.9 µM in assay [1] (dose range 1); 28 µM in assay [1] (setting [5]); 23.1 µM in assay [1] (run 2, dose range 1); over 80 µM in assay [1] (run 3, dose range 1); > 80 µM (inactive) in assay [2] (dose range 1); over 80 µM in assay [2] (setting [5]). Further, the IC50 in assay [3] (CCR6, dose range 1) is 8.93 µM; in assay [3] (setting [6]), 8.72 µM; in assay [3] (CCR6, run 2, dose range 1), 8.5 µM; in assay [4] (CXCR6, dose range 1), 8.94 µM; in assay [4] (setting [7]), 8.4 µM; in assay [4] (CXCR6, run 1, dose range 2), 10 µM. Also, the IC50 in assay [4] (CXCR6, run 2, dose range 1) turned out to be 8.87 µM; in assay [4] (CXCR6, run 2, dose range 2), 5.77 µM.
